28 compounds from ChEMBL document CHEMBL5137114, “Discovery of IHMT-MST1-58 as a Novel, Potent, and Selective MST1 Inhibitor for the Treatment of Type 1/2 Diabetes” (J Med Chem, 2022) can be followed below.

The structures appear in SMILES notation.

By IC50 is commonly meant the concentration at which inhibition is half-maximal.

Experiment [1] addresses T1, Serine/threonine-protein kinase 4 (Homo sapiens, UniProt Q13043).
T1 sequence (Q13043 whole entry): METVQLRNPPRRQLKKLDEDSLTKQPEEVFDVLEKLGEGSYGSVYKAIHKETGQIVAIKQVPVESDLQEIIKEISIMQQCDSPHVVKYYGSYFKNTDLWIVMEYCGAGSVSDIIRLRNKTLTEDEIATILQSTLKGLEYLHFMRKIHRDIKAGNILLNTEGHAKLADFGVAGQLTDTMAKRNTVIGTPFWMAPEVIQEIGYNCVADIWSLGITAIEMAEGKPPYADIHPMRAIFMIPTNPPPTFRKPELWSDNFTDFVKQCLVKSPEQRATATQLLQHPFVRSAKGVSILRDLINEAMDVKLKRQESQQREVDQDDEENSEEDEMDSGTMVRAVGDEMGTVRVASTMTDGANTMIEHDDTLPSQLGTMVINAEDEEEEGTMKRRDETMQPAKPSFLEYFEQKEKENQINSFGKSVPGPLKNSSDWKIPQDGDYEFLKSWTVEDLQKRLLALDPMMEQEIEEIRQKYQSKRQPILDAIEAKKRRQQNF
In words: Inhibition of recombinant full length N-terminal GST -tagged human MST1 expressed in baculovirus infected Sf9 insect cells using KKSRGDYMTMQIG as substrate incubated for 1 hr in presence of ATP by ADP-Glo luminescent assay. On the technique in general: ADP-Glo turns the ADP formed in a reaction into a luminescent signal.

The test system of experiment [2] is RAW264.7. Description: Inhibition of MST1 in mouse RAW264.7 cells assessed as reduction in H2O2-stimulated MST1/MST2 autophosphorylation at T183/T180 residues preincubated for 2 hrs followed by H2O2 addition for 30 mins by Western blotting analysis. Type of experiment: cell-based. To be noted: dose 0.1-10 µM, time 2.5 hrs, DDE = dose-dependent effect. On the technique in general: A western blot detects proteins with antibodies after separation by electrophoresis.

Experiment [3] has as its system RAW264.7. In words: Inhibition of MST1 in mouse RAW264.7 cells assessed as reduction in H2O2-stimulated MOB1 phosphorylation at T35 residue preincubated for 2 hrs followed by H2O2 addition for 30 mins by Western blotting analysis. Type of experiment: cell-based. As to conditions: dose 0.1-10 µM, time 2.5 hrs, DDE = dose-dependent effect.

With `CC1C(=O)N(C)c2cnc(Nc3ccc(S(N)(=O)=O)cc3)nc2N1C` (stereo not given), in experiment [1], the IC50 was found to be 313 nM.

For the compound `CN1C(=O)C(c2ccccc2Br)N(C)c2nc(Nc3ccc(S(N)(=O)=O)cc3)ncc21` (stereo not given), the IC50 in experiment [1] was determined as 57 nM.

Take `CN1C(=O)c2sccc2N(C)c2nc(Nc3ccc(S(N)(=O)=O)cc3)ncc21`: the inhibition result in experiment [2] and in experiment [3] was “Dde” each time. Also, the IC50 in experiment [1] turned out to be 104 nM.

On to `Cc1ccccc1C1C(=O)N(C)c2cnc(Nc3ccc(S(=O)(=O)NCC4CC4)cc3)nc2N1C` (stereo not given), for which the IC50 in experiment [1] amounted to 60 nM.

Regarding `CN1C(=O)C2(CCCCC2)N(C)c2nc(Nc3ccc(S(N)(=O)=O)cc3)ncc21`, the IC50 in experiment [1] came out at 272 nM.

On to `CN1C(=O)C(c2cccc(Cl)c2)N(C)c2nc(Nc3ccc(S(N)(=O)=O)cc3)ncc21` (stereo not given), for which the IC50 in experiment [1] was found to be 989 nM.

Regarding `CNS(=O)(=O)c1ccc(Nc2ncc3c(n2)N(C)C(c2ccccc2C)C(=O)N3C)cc1` (stereo not given), in experiment [1], the IC50 is 104 nM.

Regarding `Cc1ccccc1C1C(=O)N(C)c2cnc(Nc3ccc(S(=O)(=O)N(C)C)cc3)nc2N1C` (stereo not given), in experiment [1], the IC50 is 219 nM.

Consider `CCc1ccccc1C1C(=O)N(C)c2cnc(Nc3ccc(S(N)(=O)=O)cc3)nc2N1C` (stereo not given), for which the IC50 in experiment [1] worked out at 51 nM.

For the compound `CN1CC(=O)N(C)c2cnc(Nc3ccc(S(N)(=O)=O)cc3)nc21`, the IC50 in experiment [1] was 495 nM.

On to `COc1ccccc1C1C(=O)N(C)c2cnc(Nc3ccc(S(N)(=O)=O)cc3)nc2N1C` (stereo not given), for which the IC50 in experiment [1] worked out at 251 nM.

On to `CN1C(=O)C(CC2CC2)N(C)c2nc(Nc3ccc(S(N)(=O)=O)cc3)ncc21` (stereo not given), for which, in experiment [1], the IC50 came to 211 nM.

For `Cc1c(F)cccc1C1C(=O)N(C)c2cnc(Nc3ccc(S(N)(=O)=O)cc3)nc2N1C` (stereo not given), in experiment [1], the IC50 stood at 419 nM.

`COc1cccc(C2C(=O)N(C)c3cnc(Nc4ccc(S(N)(=O)=O)cc4)nc3N2C)c1` (stereo not given): the IC50 in experiment [1] was 954 nM.

Turning to `CCC1C(=O)N(C)c2cnc(Nc3ccc(S(N)(=O)=O)cc3)nc2N1C` (stereo not given), in experiment [1], the IC50 turned out to be 479 nM.

On to `CN1C(=O)C(c2cccc(C(F)(F)F)c2)N(C)c2nc(Nc3ccc(S(N)(=O)=O)cc3)ncc21` (stereo not given), for which, in experiment [1], the IC50 came to 2710 nM.

Regarding `CCNS(=O)(=O)c1ccc(Nc2ncc3c(n2)N(C)C(c2ccccc2C)C(=O)N3C)cc1` (stereo not given), the IC50 in experiment [1] is 119 nM.

On to `CN1C(=O)C(Cc2ccccc2)N(C)c2nc(Nc3ccc(S(N)(=O)=O)cc3)ncc21` (stereo not given), for which, in experiment [1], the IC50 was over 10000 nM.

Consider `CN1C(=O)C(c2ccc(F)cc2)N(C)c2nc(Nc3ccc(S(N)(=O)=O)cc3)ncc21` (stereo not given), for which, in experiment [1], the IC50 came out at 1770 nM.

With `Cc1ccccc1C1C(=O)N(C)c2cnc(Nc3ccc(S(=O)(=O)NC4CC4)cc3)nc2N1C` (stereo not given), the IC50 in experiment [1] was 53 nM.

As to `Cc1ccccc1C1C(=O)N(C)c2cnc(Nc3ccc(C4(C#N)CC4)cc3)nc2N1C` (stereo not given), the IC50 in experiment [1] came out at 256 nM.

In the case of `CC(C)C1C(=O)N(C)c2cnc(Nc3ccc(S(N)(=O)=O)cc3)nc2N1C` (stereo not given), the IC50 in experiment [1] came to 254 nM.

In the case of `CNS(=O)(=O)c1ccc(Nc2ncc3c(n2)N(C)C(c2c(F)cccc2F)C(=O)N3C)cc1` (stereo not given), the IC50 in experiment [1] was 318 nM.

`CN1C(=O)C(c2ccccc2Cl)N(C)c2nc(Nc3ccc(S(N)(=O)=O)cc3)ncc21` (stereo not given): the IC50 in experiment [1] was found to be 129 nM.

Regarding `Cc1ccccc1C1C(=O)N(C)c2cnc(Nc3ccc(C(C)(C)C#N)cc3)nc2N1C` (stereo not given), the IC50 in experiment [1] was 153 nM.

Turning to `CN1C(=O)C(c2c(F)cccc2F)N(C)c2nc(Nc3ccc(S(=O)(=O)N(C)C)cc3)ncc21` (stereo not given), the IC50 in experiment [1] came out at 181 nM.

With `CN1C(=O)C(c2ccccc2)N(C)c2nc(Nc3ccc(S(N)(=O)=O)cc3)ncc21` (stereo not given), the IC50 in experiment [1] is 383 nM.

As for `Cc1ccc(F)cc1C1C(=O)N(C)c2cnc(Nc3ccc(S(N)(=O)=O)cc3)nc2N1C` (stereo not given), in experiment [1], the IC50 was 168 nM.
